These results are taken from patent US20040092456A1, “Methods for identifying glucose uptake modulators” (priority 2002, published 2004).

Holding throughout (type): cell-based, mouse
The test system of assay [1] is EDL muscles. In words: Insulin-mediated 2-deoxyglucose (2-DG) uptake in isolated EDL muscles. The note with it: insulin 10 milliunits ml^−1. An excerpt:
(§1) Adult male mice (NMRI strain) were housed at room temperature and fed ad libitum. Animals were killed by rapid neck disarticulation and muscles removed. Extensor digitorum longus (EDL; mainly fast-twitch fibers)) and soleus (mainly slow-twitch fibers) muscles were used for measurements of 2-deoxyglucose (2-DG) uptake. Flexor digitorum brevis (FDB, mainly fast-twitch fibers) muscles were used in single fiber experiments. All procedures were approved by the local ethics committee.
(§2) 2-DG uptake was measured essentially as described elsewhere (Shashkin et al. (1995) J Biol Chem 270:25613-25618; Le Marchand-Brustel et al. (1979) J Clin Invest 64:1505-1515). Briefly, muscles were incubated at 35° C. in Krebs bicarbonate buffer containing 2 mmol 1^−1 pyruvate (no glucose) ±an antagonist of SMCE, either 2-APB, a relatively specific inhibitor of SMCE that appears to act directly on SMCE channels (Braun et al. (2001) J Biol Chem 276:1063-1070; Broad et al. (2001) J Biol Chem 276:15945-15952), or MDL, another inhibitor of SMCE with different modes of action as compared to 2-APB (van Rossum et al. (2000) J Biol Chem 275:28562-28568). In other experiments muscles were incubated in 2,5-di(tert-butyl)-1,4-benzohydroquinone (TBQ), an inhibitor of SR Ca^2+ uptake (Westerblad et al. (1994) J Physiol 474:291-301). In some experiments insulin was added (10 milliunits ml^−1) after the initial 30 min incubation period. After an additional 30 min, 2-DG (1 mmol 1^−1; 1 mCi mmol^−1) and inulin (0.2 μCi per ml medium) were added. Muscles were blotted and frozen in liquid nitrogen 20 min after addition of 2-DG. Muscles were then weighed, digested in NaOH at 70° C., cooled and centrifuged, and aliquots of the supernatants were added to scintillation cocktail and counted for ^3H (2-DG) and ^14C (inulin).
In some experiments on EDL muscles, 2-DG glucose uptake was measured after 2-APB removal in the continued presence of insulin. After the initial 30 min incubation period, insulin (10 milliunits ml^−1) was added and remained in the solution for the rest of the experiment. After an additional 30 min, 2-APB (100 μM) was added. […] Control muscles were treated in the same way except that 2-APB was never added.

The subject of assay [2] is soleus muscles. In words: Insulin-mediated 2-deoxyglucose (2-DG) uptake in isolated soleus muscles. The note with it: insulin 10 milliunits ml^−1.
Description: as §1, §2

For assay [3], the system named is EDL muscles. In words: Basal 2-DG uptake (no insulin) in isolated EDL muscles. The note with it: for Basal rate of 2-DG uptake, EDL: 2-APB 0.1 mmol 1^−1, MDL 300 μmol 1^−1, TBQ 500 nmol 1^−1, mean ± SEM (n).
Description: as §1, §2

Assay [4] concerns soleus muscles. The experiment in a line: Basal 2-DG uptake (no insulin) in isolated soleus muscles. The note with it: for Basal rate of 2-DG uptake, Soleus: MDL 300 μmol 1^−1, TBQ 500 nmol 1^−1, mean ± SEM (n).
Description: as §1, §2

In a further assay the test system is skeletal muscle. In words: Contractile function (tetanic force, relaxation) during drug exposure.
Assay [5] has as its system store-mediated Ca^2+ entry (SMCE). In words: Rate of Mn2+ quenching of fura-2 fluorescence in single FDB muscle fibers (indirect measure of SMCE).
Description: as §1
(§3) Experiments on single FDB muscle fibers were performed at 24° C. The isolated fiber was mounted in a stimulation chamber and continuously superfused by standard Tyrode solution (Lännergren et al. (1987) J Physiol 390:285-293). The free myoplasmic [Ca^2+] ([Ca^2+]i) was measured with the fluorescent Ca^2+ indicator indo-1 (Andrade et al. (1998) J Physiol 509:565-575). An indirect measure of SMCE was obtained by measuring the rate of Mn^2+ entry and quenching of the fluorescence intensity of fura-2 (Hopfet al. (1996) J Biol Chem 271:22358-22367). MnCl2 (100 μmol 1^−1) was added to the bath solution and the fura-2 injected muscle fiber was excited at 360±5 nm (the isosbestic wavelength of fiira-2 under our experimental conditions) while measuring the fluorescence light emitted at 495±5 nm. The rate of Mn^2+ quenching was measured during periods where the rate of decrease of the fluorescent light was stable, i.e. ignoring transient changes induced by changes of the bath solution. Measurements were not performed until 2 min after application of insulin, thus allowing time for insulin to act.

The subject of another assay is single FDB muscle fibers. The experiment in a line: Free myoplasmic [Ca2+]i measured with indo-1 in single FDB muscle fibers. The note with it: global [Ca^2+]i, 75±13 before, n=4.
Description: as §1
as §3, with “The isolated fiber was mounted in a stimulation chamber and continuously superfused by standard Tyrode solution (Lännergren et al. (1987) J Physiol 390:285-293). The free myoplasmic [Ca^2+]” left out, “Measurements were not performed until 2 min after application of insulin, thus allowing time for insulin to act.” left out

Description for skeletal muscle: To ensure that this inhibition was not caused by a generalized, unspecific inhibitory effect of the drug, contractile function was tested during exposure to 2-APB.

With `c1ccc([C@H]2CCC[C@H]2NC2=NCCCCCCCCCCC2)cc1` (relative stereo) [MDL, cis-N-(2-phenylcyclopentyl)azacyclotridec-1-en-2-amine], in the assay with EDL muscles [1], the “Effect on insulin-mediated 2-DG uptake, EDL (in words)” value was “decreased insulin-mediated 2-DG uptake in a dose-dependent manner”. Further, in the assay on soleus muscles [2], the “Effect on insulin-mediated 2-DG uptake, soleus (in words)” value is recorded as “decreased insulin-mediated 2-DG uptake in a dose-dependent manner”. Moreover, in the assay on EDL muscles [3], the “Effect on basal 2-DG uptake, EDL (in words)” value is listed as “not significantly affected” and the “Basal rate of 2-DG uptake, EDL” value is 42 ± 3 (4) μmol 1^−1 min^−1. Moreover, in the assay on soleus muscles [4], the “Effect on basal 2-DG uptake, soleus (in words)” value is given as “not significantly affected” and the “Basal rate of 2-DG uptake, Soleus” value is listed as 42 ± 4 (4) μmol 1^−1 min^−1. The “Reversibility of the force reduction on washout” value with skeletal muscle (100 μmol 1^−1 MDL) was “not reversed on washout”. The “Reduction of tetanic force” value in the assay on skeletal muscle (100 μmol 1^−1 MDL, 30 min of exposure, n=4) stood at 22±2%.

`CC(C)(C)c1cc(O)c(C(C)(C)C)cc1O` [TBQ, 2,5-di(tert-butyl)-1,4-benzohydroquinone]: the “Insulin-mediated 2-DG uptake, EDL” value in the assay on EDL muscles [1] (100 nmol 1^−1 TBQ, n=6) came to 93±5 μmol 1^−1 min^−1. For the same compound, in the assay on EDL muscles [1] (500 nmol 1^−1 TBQ, n=4), the “Insulin-mediated 2-DG uptake, EDL” value was 103±4 μmol 1^−1 min^−1. For the same compound, the “Effect on insulin-mediated 2-DG uptake, EDL (in words)” value in the assay on EDL muscles [1] is given as “no effect”. In addition, the “Insulin-mediated 2-DG uptake, soleus” value with soleus muscles [2] (100 nmol 1^−1 TBQ, n=6) was 150±7 μmol 1^−1 min^−1. For the same compound, in the assay on soleus muscles [2] (500 nmol 1^−1 TBQ, n=4), the “Insulin-mediated 2-DG uptake, soleus” value came to 179±8 μmol 1^−1 min^−1. Besides, the “Effect on insulin-mediated 2-DG uptake, soleus (in words)” value in the assay on soleus muscles [2] was “no effect”. In addition, in the assay on EDL muscles [3], the “Effect on basal 2-DG uptake, EDL (in words)” value is “no significant effect” and the “Basal rate of 2-DG uptake, EDL” value is reported as 37 ± 6 (4) μmol 1^−1 min^−1. For the same compound, in the assay on soleus muscles [4], the “Effect on basal 2-DG uptake, soleus (in words)” value is recorded as “no significant effect” and the “Basal rate of 2-DG uptake, Soleus” value is recorded as 63 ± 5 (4) μmol 1^−1 min^−1. Moreover, the “Increase of tetanic force” value in the assay with skeletal muscle (2-APB 100 μmol 1^−1, 30 min (n=5), TBQ 500 nmol 1^−1 (n=4)) is listed as 4±2%. For the same compound, the “Relaxation speed (in words)” value in the assay on skeletal muscle (2-APB 100 μmol 1^−1, 30 min, TBQ 500 nmol 1^−1) was “slight slowing of relaxation”.

With insulin, the “Increase in the rate of Mn^2+ quenching on addition of insulin” value in assay [5] (0 mmol 1^−1 glucose, n=5) is recorded as “about 10%”. Also, the “Insulin-induced change of the rate of Mn^2+ quenching (in words)” value in assay [5] (5.5 mmol 1^−1 glucose, mean data, n=6) is recorded as “no significant insulin-induced change”. In assay [5] (insulin 10 mU ml^−1 in continued presence of 2-APB 100 μmol 1^−1), the “Recovery of the 2-APB-induced decrease of quenching rate by insulin” value is “about half”. The “[Ca^2+]i after application of insulin” value in the assay with single FDB muscle fibers is 74±13 nmol 1^−1.
